The nature of experiment [1]: Cytotoxicity against human SKBR3 cells. Format: cell-based. Particulars: SK-BR-3.
A further experiment relates to HT-29. The experiment in a line: Cytotoxicity against human HT29 cells. In kind it is cell-based.
The test system of a further experiment is NCI-H460. The experiment in a line: Cytotoxicity against human H460 cells. Format: cell-based.
In another experiment the test system is U-251. The experiment in a line: Cytotoxicity against human U251 cells. In kind it is functional, cell-based.
Another experiment deals with A498. The experiment in a line: Cytotoxicity against human A498 cells. Format: cell-based.
The subject of another experiment is CCRF-CEM. In words: Cytotoxicity against human CEM cells. In kind it is cell-based.
In another experiment the test system is SK-OV-3. The experiment in a line: Cytotoxicity against human SKOV3 cells. Format: cell-based.
A further experiment relates to SK-MEL-28. The experiment in a line: Cytotoxicity against human SK-MEL-28 cells. In kind it is cell-based.

Structures are written as SMILES. Starred links: 1 amine or outer side, 2 acyl side, 3 side chain; linkers in the order of their positions; H or OH if unused. Positions of bridges follow the written chain, without caps; N, C: chain ends. Non-standard residues stand in square brackets, D forms with d. Residues, ends and D or L forms follow the SMILES beside them. ξ: configuration not given here. X2 = CC(=O)N(C)[C@@H](CC(C)C)C(=O)O[C@@H](CC(O)C(O)CC(C)C)CC(N[*:2])C(O)C(=O)[*:1]; hPhe = N[C@@H](CCc1ccccc1)C(=O)O; X1 = C/C=C(/N[*:1])C(=O)[*:2]; Dhb = C/C=C(\N)C(=O)O; ξT = CC(O)C(N)C(=O)O

Take `C/C=C1\NC(=O)[C@H](Cc2ccccc2)NC(=O)[C@@H]2CCCN2C(=O)CNC(=O)[C@H](CCC(N)=O)NC(=O)C(O)C(C[C@H](CC(O)C(O)CC(C)C)OC(=O)[C@H](CC(C)C)N(C)C(C)=O)NC(=O)[C@@H]2CCCN2C(=O)[C@H](CCc2ccccc2)NC(=O)C(C(C)O)NC(=O)/C(=C\C)NC(=O)[C@H](CO)NC1=O` (stereo partly drawn) [PAHAYOKOLIDES A] (QGPF[Dhb]S[X1][ξT][hPhe]P; linker N-C via X2): the IC50 (as a rule, the concentration that inhibits the measured activity by half) in experiment [1] was determined as 16.7 µM; with HT-29 it was 44.6 µM; in the experiment on NCI-H460 it was 2.13 µM; in the experiment with U-251, 13.3 µM; with A498, 2.61 µM; in the experiment on CCRF-CEM it was 3.27 µM. Moreover, the IC50 was 2.76 µM with SK-OV-3 and 5.74 µM in the experiment on SK-MEL-28.

(Values after ChEMBL document CHEMBL1139859, “Structures of pahayokolides A and B, cyclic peptides from a Lyngbya sp” (J Nat Prod, 2007).)
